Consider 29 molecules from patent US11485701B2, “Insect repellent compounds and compositions, and methods thereof” (Iowa State University Research Foundation, Inc., priority 2016, dated 2022).

Where a name gives a salt, the structure may show the parent alone. Read-outs that look alike come from different tables or passages of the source.

This experiment has as its system Northern house mosquitoes (Culex pipiens). The experiment is described as follows: Short-term spatial repellency, static air repellency chamber. The experiment is classed as in vivo. The note with it: for pest or weed control at 0.5 %: Culex pipiens. The protocol:
Northern house mosquitoes (Culex pipiens), a primary carrier of West Nile virus in eastern North America, were obtained from an established colony in the Medical Entomology Laboratory in the Department of Entomology at Iowa State University of Science and Technology, Ames Iowa. Mosquito rearing was performed by established protocols that are maintained by the Medical Entomology Laboratory. Repellency bioassays were performed with adult female mosquitoes that emerged 5-7 days previously. […] Mosquitoes, prior to testing, were held at 27° C., 80% relative humidity, and on a 16:8 hr light:dark photoperiod.
Repellency bioassays were performed using a static air repellency chamber, which has been described in various publications by the Pesticide Toxicology Laboratory at Iowa State University of Science and Technology, Ames, Iowa Briefly, a 9-cm×60-cm glass tube was used to monitor the distribution of mosquitoes at 15 min, 30 min, 60 min, 90 min, 120 min, and 150 min after introducing mosquitoes into the static air repellency chamber. […] One end of the spatial chamber contained a treated filter paper, whereas the other (untreated) end of the spatial chamber was not treated with compound. Controls contained filter papers treated with acetone, the solvent used to make the 0.5% solutions. Each end of the repellency chamber was secured with a 100-mm Petri dish using celluloid tape. After securing the petri dishes with corresponding treated or untreated filter papers to the spatial chamber, mosquitoes were anesthetized with carbon dioxide, and approximately 20 female mosquitoes were placed into each repellency chamber for one replicate. The opening of the spatial repellency chamber was secured with celluloid tape to prevent their escape. Chambers were oriented in opposite directions from the previous replicate to account for any directional effect. Four replicates were performed for data analysis for both the control and treatment groups.
Data for spatial repellency, the percentage repellency, is reported at each of the respective time points in the figures and tables mentioned below. The percentage spatial repellency is the examination of the distribution of mosquitoes and is calculated using the following equation: […]

Where [1] appears, read: 0.25 h, filter paper, 1 mL of 0.5% solution in acetone, air-dried 15 min, 15 min after introduction, read-out: Short-term Percentage repellency 15 min.
Setting [2] is: 1.5 h, filter paper, 1 mL of 0.5% solution in acetone, air-dried 15 min, 90 min, read-out: Short-term Percentage repellency 90 min.
Setting [3] is: 2.5 h, filter paper, 1 mL of 0.5% solution in acetone, air-dried 15 min, 150 min, read-out: Short-term Percentage repellency 150 min.

With `CC(C)=CCCC(C)CC(=O)OCC1CCC1` (stereo not drawn) [Compound 2026, cyclobutylmethyl citronellate], the pest or weed control at 0.5 % came out at 25% under setting [1], 37.5% under setting [2] and 25% under setting [3].

For `C=CC(C)(CCC=C(C)C)OC(=O)CC(C)C` (stereo not drawn) [Compound 2152, linalyl isovalerate], the pest or weed control at 0.5 % came to 15% under setting [1], 82.5% under setting [2] and 92.5% under setting [3].

For `CC1=CCC(C(C)(C)OC(=O)CC(C)C)CC1` (stereo not drawn) [Compound 2257, alpha-terpinyl isovalerate], the pest or weed control at 0.5 % was determined as 10% under setting [1], 55% under setting [2] and 65% under setting [3].

Regarding `C=CCc1ccc(OC(=O)CC(C)C)c(OC)c1` [Compound 1076A, eugenyl isovalerate], the pest or weed control at 0.5 % under setting [1] is 17.5%.

With `CC(C)=CCC/C(C)=C\COC(=O)CC(C)C` [Compound 2255B, neryl isovalerate], the pest or weed control at 0.5 % under setting [1] stood at 7.5%, the pest or weed control at 0.5 % under setting [2] was determined as 75% and the pest or weed control at 0.5 % under setting [3] was found to be 80%.

Turning to `CC(C)=CCCC(C)CCOC(=O)C=C(C)C` (stereo not drawn) [Compound 2105, citronellyl 3,3-dimethylacrylate], the pest or weed control at 0.5 % came to 45% under setting [1], 75% under setting [2] and 65% under setting [3].

With `CC(C)=CCC/C(C)=C\COC(=O)C1(C)CCC1` [Compound 2108, neryl 1-methylcyclobutanecarboxylate], the pest or weed control at 0.5 % turned out to be 60% under setting [1], 90% under setting [2] and 85% under setting [3].

Regarding `CC(C)=CCCC(C)CC(=O)OC1COC1` (stereo not drawn) [Compound 3071, 3-oxetanyl citronellate], the pest or weed control at 0.5 % reads like this: under setting [1], 2.5%; under setting [2], 37.5%; under setting [3], 40%.

Turning to `C=C(C)CCOC(=O)CC(C)CCC=C(C)C` (stereo not drawn) [Compound 2168, isoprenyl citronellate], the pest or weed control at 0.5 % by setting is: under setting [1], 27.5%; under setting [2], 62.5%; under setting [3], 72.5%.

In the case of `CC(=O)OCCOC(=O)C=Cc1ccccc1` [Compound 1105, 2-acetoxyethyl cinnamate], the pest or weed control at 0.5 % by setting is: under setting [1], 30%; under setting [2], 15%; under setting [3], 10%.

As for `CC(C)=CCCC(C)CCOC(=O)CC#N` (stereo not drawn) [Compound 2198, citronellyl cyanoacetate], the pest or weed control at 0.5 % by setting is: under setting [1], 37.5%; under setting [2], 32.5%; under setting [3], 40%.

Take `CC1CCC(C(C)C)C(OC(=O)Cc2cccs2)C1` (stereo not drawn) [Compound 2245, menthyl thiophen-2-ylacetate]: the pest or weed control at 0.5 % by setting is: under setting [1], -35%; under setting [2], 35%; under setting [3], 57.5%.

Consider `CC(C)=CCCC(C)CCOC(=O)Cc1cccs1` (stereo not drawn) [Compound 2244, citronellyl thiophen-2-ylacetate], for which the pest or weed control at 0.5 % came to 32.5% under setting [1], 45% under setting [2] and 55% under setting [3].

As for `CC(C)=CCCC(C)CCOC(=O)C1CC(F)(F)C1` (stereo not drawn) [Compound 3069, citronellyl 3,3-difluorocyclobutanecarboxylate], the pest or weed control at 0.5 % worked out at 2.5% under setting [1], 20% under setting [2] and 27.5% under setting [3].

As to `CCCCCCC(=O)OCCC(C)CCC=C(C)C` (stereo not drawn) [Compound 2203, citronellyl hexanecarboxylate], the pest or weed control at 0.5 % under setting [1] is 0%, the pest or weed control at 0.5 % under setting [2] was 10% and the pest or weed control at 0.5 % under setting [3] was found to be 20%.

On to `Cc1cc(OC(=O)C2CC2)c(C(C)C)cc1Br` [Compound 1075B, 4-bromothymyl cyclopropanecarboxylate], for which the pest or weed control at 0.5 % under setting [1] was 47.5%, the pest or weed control at 0.5 % under setting [2] stood at 32.5% and the pest or weed control at 0.5 % under setting [3] turned out to be 30%.

As to `CC(C)=CCCC(C)CC(=O)OCCO` (stereo not drawn) [Compound 1052, 2-hydroxyethyl citronellate], the pest or weed control at 0.5 % by setting is: under setting [1], 77.5%; under setting [2], 92.5%; under setting [3], 82.5%.

In the case of `CC(C)=CCCC(C)CCOC(=O)CC(F)(F)F` (stereo not drawn) [Compound 2235, citronellyl 3,3,3-trifluoropropanoate], the pest or weed control at 0.5 % worked out at 12.5% under setting [1], 62.5% under setting [2] and 77.5% under setting [3].

For the molecule `O=C(OC/C=C/c1ccccc1)C1CC1` [Compound 2038, cinnamyl cyclopropanecarboxylate], the pest or weed control at 0.5 % runs as follows: under setting [1], 40%; under setting [2], 57.5%; under setting [3], 60%.

On to `CC(C)=CCCC(C)CCOC(=O)C(C)(F)F` (stereo not drawn) [Compound 2232, citronellyl 2,2-difluoropropanoate], for which the pest or weed control at 0.5 % is, setting by setting: under setting [1], 50%; under setting [2], 82.5%; under setting [3], 82.5%.

Consider `CC(C)=CCCC(C)CCOC=O` (stereo not drawn) [Compound 1089, citronellyl formate], for which the pest or weed control at 0.5 % was 77.5% under setting [1], 92.5% under setting [2] and 90% under setting [3].

On to `C#CC(C)(C)OC(=O)CC(C)CCC=C(C)C` (stereo not drawn) [Compound 2171, 1,1-dimethylpropargyl citronellate], for which the pest or weed control at 0.5 % under setting [1] is 37.5%, the pest or weed control at 0.5 % under setting [2] came to 67.5% and the pest or weed control at 0.5 % under setting [3] came to 62.5%.

`Cc1ccc(C(C)C)cc1OC(=O)CC(C)C` [Compound 1079C, carvacryl isovalerate]: the pest or weed control at 0.5 % runs as follows: under setting [1], -10%; under setting [2], 87.5%; under setting [3], 95%.

Take `CC1CCC(C(C)C)C(OC(=O)C2(C)CCC2)C1` (stereo not drawn) [Compound 2210, menthyl 1-methylcyclobutanecarboxylate]: the pest or weed control at 0.5 % under setting [1] is -5% and the pest or weed control at 0.5 % under setting [2] came out at 62.5%.

As to `CC(C)=CCCC(C)CCOC(=O)C1CCC1` (stereo not drawn) [Citronellyl cyclobutanecarboxylate], the “Short-term percentage repellency 150 min at 1/5 the concentration” value (0.1% (1/5 of 0.5%), 150 minutes, FIG. 6) is “approximately 90%”. Under “filter paper treated with 0.1%, FIG. 6”, the “Short-term repellency at low concentration, in words” value is on record as “significant levels of repellency”.

`CC(C)=CCCC(C)CCOC(=O)c1ccccc1` (stereo not drawn) [Compound 2189, citronellyl benzoate]: the pest or weed control at 0.5 % is, setting by setting: under setting [1], 6.5%; under setting [2], 17.5%; under setting [3], 27.5%.

Turning to `CC(C)CC(=O)OCC1=CCC2CC1C2(C)C` (stereo not drawn) [Compound 2258, myrteryl isovalerate], the pest or weed control at 0.5 % reads like this: under setting [1], 35%; under setting [2], 85%; under setting [3], 87.5%.

Turning to `CC(C)CC(=O)OC1CC(C)CCC1C(C)C` (stereo not drawn) [Compound 2256, menthyl isovalerate], the pest or weed control at 0.5 % turned out to be 37.5% under setting [1], 42.5% under setting [2] and 27.5% under setting [3].

As to `Cc1ccc(C(C)C)c(OC(=O)C(F)F)c1` [Compound 2194, thymyl difluoroacetate], the pest or weed control at 0.5 % (0.25 h, read-out: Short-term Percentage repellency 15 min) was determined as 20%.
